Blank lines part the entries; values can stand above or below the compound they belong to.
Key:
[1] = target: FGF14:Nav1.6 complex (CLuc-FGF14 and CD4-Nav1.6 C-tail-NLuc) (Homo sapiens, UniProt Q92915+Q9UQD0); assay: cell-based; settings: for activity at 30 µM: HEK293, 2 h, read-out: % luminescence, FGF14:Nav1.6 complex (HTS); for initial dose/concentration dependency against FGF14:Nav1.6: screening library compound, Suppl. Fig. 3
[2] = test system: hippocampal CA1 pyramidal neurons; assay: Ex vivo patch-clamp of hippocampal CA1 pyramidal neurons in brain slices; assay type: cell-based, mice; settings: 20 μM
Nav1.6 = assay: Whole-cell patch-clamp electrophysiology in HEK-Nav1.6 cells; assay type: cell-based, human
FGF14^Y158A:Nav1.6 = FGF14^Y158A:Nav1.6 (Homo sapiens, UniProt Q92915+Q9UQD0, Y153A); assay: LCA dose response, FGF14^Y158A:Nav1.6 mutant complex
[3] = test system: double stable HEK293 cells; assay: CellTiter-Blue; assay type: cell-based; settings: 30 μM; fluorescence read after 16 h; relative to DMSO controls
[4] = target: FGF14:FGF14 dimer (CLuc-FGF14 and FGF14-NLuc) (Homo sapiens, UniProt Q92915); assay: LCA counter-screen and dose response, FGF14:FGF14 homodimer; assay type: cell-based; settings: plateau; normalized to 0.3% DMSO

- initial dose/concentration dependency against FGF14:Nav1.6 [1]: less ideal
SMILES: Cc1ccc2c(=O)c3ccccc3n(CCCN)c2c1C.O=C(O)C(=O)O [ER 27319]

- effect on FGF14^Y158A:Nav1.6 complex compared with FGF14^WT (FGF14^Y158A:Nav1.6): abolished
SMILES: N#CCNC(=O)c1ccc(-c2ccnc(Nc3ccc(N4CCOCC4)cc3)n2)cc1 [Momelotinib]

- initial dose/concentration dependency against FGF14:Nav1.6 [1]: promising concentration dependency
SMILES: NC(=O)c1cnc(N[C@@H]2CCCC[C@@H]2N)nc1Nc1cccc(-n2nccn2)c1 [PRT062607]

- effect on FGF14^Y158A:Nav1.6 complex compared with FGF14^WT (FGF14^Y158A:Nav1.6): abolished
SMILES: C1=C/COCc2cc(ccc2OCCN2CCCC2)Nc2nccc(n2)-c2cccc(c2)COC/1 [Pacritinib]

- FGF14^Y158A:Nav1.6 IMin/EMax (FGF14^Y158A:Nav1.6; plateau, normalized to 0.3% DMSO): 78.0 percent luminescence
- FGF14:FGF14^WT IMin/EMax [4]: 150.6 percent luminescence
SMILES: Cc1cnc(Nc2ccc(N3CCN(C)CC3)cc2)nc1Nc1cccc(S(=O)(=O)NC(C)(C)C)c1 [TG101209]

The remaining lines, values behind:

SMILES: CC(C)(O)/C=C/C(=O)[C@](C)(O)[C@H]1[C@H](O)C[C@@]2(C)[C@@H]3CC=C4[C@@H](C=C(O)C(=O)C4(C)C)[C@]3(C)C(=O)C[C@]12C [Cucurbitacin I]
- activity at 30 µM [1]: 5.6%
- initial dose/concentration dependency against FGF14:Nav1.6 [1]: highly potent but undesirable curve shape

SMILES: Cc1cnc(Nc2ccc(OCCN3CCCC3)cc2)nc1Nc1cccc(S(=O)(=O)NC(C)(C)C)c1 [Fedratinib]
- resting membrane potential, current threshold and voltage threshold for action potential firing ([2]; Fgf14^+/+ mice): no significant changes
- maximum number of evoked action potentials (AP) ([2]; Fgf14^+/+ mice, 1 hr slice incubation): 11.3 ± 1.4
- evoked action potentials ([2]; Fgf14^−/− mice, 1 hr slice incubation): 11.8 ± 2.7
- V½ of activation (Nav1.6; HEK-Nav1.6 FGF14-GFP, 20 μM): −30.56 ± 1.9 mV
- V½ of steady-state inactivation (Nav1.6; HEK-Nav1.6 FGF14-GFP, 20 μM): −60.8 ± 1.2 mV
- decay time constant (τ) of INa (Nav1.6; HEK-Nav1.6 FGF14-GFP, 20 μM): 1.4 ± 0.06 ms
- peak transient Na+ current (INa) density (Nav1.6; HEK-Nav1.6 FGF14-GFP, 20 μM): −81.27 ± 11.3 pA/pF
- long-term inactivation (LTI), normalized INa at pulse 3 (Nav1.6; HEK-Nav1.6 FGF14-GFP, 30 min incubation, pulse 3): 0.89 ± 0.02%
- effect on long-term inactivation (LTI) (Nav1.6; HEK-Nav1.6 FGF14^Y158A): no effect
- peak transient Na+ current (INa) density (Nav1.6; HEK-Nav1.6 FGF14^Y158A-GFP, 20 μM): −26.65 ± 3.5 pA/pF
- V½ of activation (Nav1.6; HEK-Nav1.6 FGF14^Y158A, 20 μM): −22.69 ± 1.2 mV
- V½ of steady-state inactivation, change compared to DMSO (Nav1.6; HEK-Nav1.6 FGF14^Y158A, 20 μM): no significant change
- decay time constant (τ) of INa (Nav1.6; HEK-Nav1.6 FGF14^Y158A, 20 μM): 1.8 ± 0.11 ms
- peak transient Na+ current (INa) density (Nav1.6; HEK-Nav1.6 GFP (channel alone), 20 μM): −59.43 ± 6.0 pA/pF
- V½ of activation (Nav1.6; HEK-Nav1.6 GFP, 20 μM): −25.7 ± 1.7 mV
- V½ of steady-state inactivation (Nav1.6; HEK-Nav1.6 GFP, 20 μM): −61.7 ± 1.0 mV
- decay time constant (τ) of INa (Nav1.6; HEK-Nav1.6 GFP, 20 μM): 1.3 ± 0.07 ms

SMILES: O=C(Nc1ccc([N+](=O)[O-])cc1Cl)c1cc(Cl)ccc1O [Niclosamide]
- activity at 30 µM [1]: 18.7%

SMILES: O=[N+]([O-])c1ccc2c(c1)S(=O)(=O)C=C2 [Stattic]
- % fluorescence from the CTB assay (cell viability) [3]: 57.2%

SMILES: C[C@H]1[C@H](C)CC[C@]2(C(=O)O)CC[C@]3(C)C(=CC[C@@H]4[C@@]5(C)CC[C@H](O)C(C)(C)[C@@H]5CC[C@]43C)[C@H]12 [Ursolic Acid]
- activity at 30 µM [1]: 104%

— publication PMC7984254 (Biochimica et biophysica acta. Molecular cell research, 2020)
